Values joined by “and” are separate entries in the source; they are usually repeats but may differ in a detail not shown here. Equal values may be shown once. Blank lines part the entries; values can stand above or below the compound they belong to.
Molecular target: T1, FITC-labeled CFTRpS753pS768 peptide (no 14-3-3) (Homo sapiens, UniProt P13569)
T1 construct: made in house; host or cells: synthetic peptide
Assay: Dose-response FP control assay in the absence of 14-3-3
Format: binding
Conditions: for FP signal: No 14-3-3; for Polarization in the absence of 14-3-3, background subtracted: replicates
Method: The 14-3-3β concentration used for the FP screening assay was 10 μM (dashed line). c HTS FP assay of the Cyclenium library. The samples contain 100 nM of FITC-CFTR_pS753pS768 peptide, 10 μM 14-3-3β, and 50 μM compound. FC-A (100 µM) was added as a positive control and DMSO as the negative control. Hit compounds are defined as a polarization increase which is higher than 20% of the response of FC-A. Red squares are compounds that appeared positive in the negative control without 14-3-3. […] Background polarization was subtracted from all values, n = 3 technical replicates. Compounds selected for further analysis are indicated with an asterisk. e Polarization in the absence of 14-3-3. […] Source data are provided as a Source Data file.
The FITC-labeled peptides were dissolved in FP buffer (10 mM HEPES pH 7.4, 150 mM NaCl, 0.1% Tween20, 1 mg/mL BSA) to a final concentration of 100 nM or 10 nM. For the dose-response assays, a 14-3-3β concentration of 10 μM was used while titrating the compounds in a two-times dilution series and, for the other assays, a dilution series of 14-3-3β was made with constant concentration of compound. The dilution series were made in 384 Corning Black Round Bottom well plates and their polarization was measured with a Tecan Infinite F500 plate reader (ex. = 485 nm, em. = 535 nm). The method of fitting of the curves was: “log(agonist) vs. response – Variable slope (four parameters)” from GraphPad Prism. The equation is Y = Bottom + (Top-Bottom)/(1 + 10^((LogEC50-X)*HillSlope)).

T1 sequence (P13569 747-774 limits assumed): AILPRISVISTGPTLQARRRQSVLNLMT

SMILES: N=C(N)NCCCC1NC(=O)C(CCCCN)NCc2ccccc2Sc2ccccc2CNC(=O)C(Cc2ccc(O)cc2)NC1=O (stereo not drawn) [CY001951]
FP signal (compound 476.8 pM): 3 | FP signal (compound 953.7 pM): 3 | FP signal (compound 1.90735e-9 M): 4 | FP signal (compound 3.8147e-9 M): 4 | FP signal (compound 7.6294e-9 M): 3 | FP signal (compound 1.52588e-8 M): 5 | FP signal (compound 3.05176e-8 M): 4 | FP signal (compound 6.10352e-8 M): 5 | FP signal (compound 1.2207e-7 M): 4 | FP signal (compound 2.44141e-7 M): 4 | FP signal (compound 4.88281e-7 M): 5 | FP signal (compound 9.76563e-7 M): 6 | FP signal (compound 1.95313e-6 M): 6 | FP signal (compound 3.90625e-6 M): 6 | FP signal (compound 7.8125e-6 M): 7 | FP signal (compound 1.5625e-5 M): 9 | FP signal (compound 3.125e-5 M): 16 | FP signal (compound 6.25e-5 M): 33 | FP signal (compound 0.000125 M): 73 | FP signal (compound 0.00025 M): 143 | FP signal (compound 0.0005 M): 201 | FP signal (compound 0.001 M): 252

SMILES: NCCCC1NCc2ccccc2Sc2ccccc2CNC(=O)C(Cc2c[nH]c3ccccc23)NC(=O)C(Cc2ccccc2)NC1=O (stereo not drawn) [CY007345]
FP signal (compound 476.8 pM): 5 | FP signal (compound 953.7 pM): 5 | FP signal (compound 1.90735e-9 M): 4 | FP signal (compound 3.8147e-9 M): 7 | FP signal (compound 7.6294e-9 M): 5 | FP signal (compound 1.52588e-8 M): 4 | FP signal (compound 3.05176e-8 M): 4 | FP signal (compound 6.10352e-8 M): 7 | FP signal (compound 1.2207e-7 M): 6 | FP signal (compound 2.44141e-7 M): 5 | FP signal (compound 4.88281e-7 M): 6 | FP signal (compound 9.76563e-7 M): 7 | FP signal (compound 1.95313e-6 M): 8 | FP signal (compound 3.90625e-6 M): 14 | FP signal (compound 7.8125e-6 M): 28 | FP signal (compound 1.5625e-5 M): 52 | FP signal (compound 3.125e-5 M): 90 | FP signal (compound 6.25e-5 M): 137 | FP signal (compound 0.000125 M): 191 | FP signal (compound 0.00025 M): 224 | FP signal (compound 0.0005 M): 238 | FP signal (compound 0.001 M): 248

SMILES: C=CC(C)(C)OC[C@H]1O[C@H](O[C@@H]2C3=C([C@H](C)COC(C)=O)C[C@H](O)[C@]3(C)/C=C3/[C@@H](COC)CC[C@H]3[C@@H](C)[C@H]2O)[C@H](O)[C@@H](OC(C)=O)[C@@H]1O [FC-A, fusicoccin A, reference compound]
FP signal (compound 476.8 pM): 1 | FP signal (compound 953.7 pM): 5 | FP signal (compound 1.90735e-9 M): 0 | FP signal (compound 3.8147e-9 M): 3 | FP signal (compound 7.6294e-9 M): 3 | FP signal (compound 1.52588e-8 M): 2 | FP signal (compound 3.05176e-8 M): 2 | FP signal (compound 6.10352e-8 M): 1 | FP signal (compound 1.2207e-7 M): 1 | FP signal (compound 2.44141e-7 M): 2 | FP signal (compound 4.88281e-7 M): 4 | FP signal (compound 9.76563e-7 M): 5 | FP signal (compound 1.95313e-6 M): 6 | FP signal (compound 3.90625e-6 M): 15 | FP signal (compound 7.8125e-6 M): 23 | FP signal (compound 1.5625e-5 M): 37 | FP signal (compound 3.125e-5 M): 53 | FP signal (compound 6.25e-5 M): 70 | FP signal (compound 0.000125 M): 91 | FP signal (compound 0.00025 M): 104 | FP signal (compound 0.0005 M): 116 | FP signal (compound 0.001 M): 133 | Polarization in the absence of 14-3-3, background subtracted (compound 7.8125e-7 M): 1.367 and 0.6667 and -0.1333 | Polarization in the absence of 14-3-3, background subtracted (compound 1.5625e-6 M): 0.1667 and 0.6667 and 0.3667 | Polarization in the absence of 14-3-3, background subtracted (compound 3.125e-6 M): 0.06667 and -0.03333 and 0.6667 | Polarization in the absence of 14-3-3, background subtracted (compound 6.25e-6 M): 0.06667 and -0.2333 and -0.3333 | Polarization in the absence of 14-3-3, background subtracted (compound 1.25e-5 M): 0.5667 and 0.6667 (2×) | Polarization in the absence of 14-3-3, background subtracted (compound 2.5e-5 M): -0.03333 and 0.6667 and 0.8667 | Polarization in the absence of 14-3-3, background subtracted (compound 5e-5 M): 1.667 and 1.067 and 1.267 | Polarization in the absence of 14-3-3, background subtracted (compound 0.0001 M): 1.667 and 1.167 and 2.267

SMILES: NCCCCC1NCc2ccccc2Sc2ccccc2CNC(=O)C(Cc2cccc(Cl)c2)NC(=O)C(Cc2ccc(O)cc2)NC1=O (stereo not drawn) [CY007288]
FP signal (compound 476.8 pM): 6 | FP signal (compound 953.7 pM): 6 | FP signal (compound 1.90735e-9 M): 5 | FP signal (compound 3.8147e-9 M): 4 | FP signal (compound 7.6294e-9 M): 7 | FP signal (compound 1.52588e-8 M): 6 | FP signal (compound 3.05176e-8 M): 5 | FP signal (compound 6.10352e-8 M): 4 | FP signal (compound 1.2207e-7 M): 4 | FP signal (compound 2.44141e-7 M): 5 | FP signal (compound 4.88281e-7 M): 6 | FP signal (compound 9.76563e-7 M): 6 | FP signal (compound 1.95313e-6 M): 5 | FP signal (compound 3.90625e-6 M): 8 | FP signal (compound 7.8125e-6 M): 9 | FP signal (compound 1.5625e-5 M): 16 | FP signal (compound 3.125e-5 M): 30 | FP signal (compound 6.25e-5 M): 55 | FP signal (compound 0.000125 M): 97 | FP signal (compound 0.00025 M): 149 | FP signal (compound 0.0005 M): 194 | FP signal (compound 0.001 M): 224

SMILES: N=C(N)NCCCC1NC(=O)C(CCC(N)=O)NC(=O)C(CCCNC(=N)N)NC(=O)C2CCCN2Cc2cccc(c2)-c2ccccc2CNC1=O (stereo not drawn) [CY007455]
FP signal (compound 476.8 pM): 5 | FP signal (compound 953.7 pM): 6 | FP signal (compound 1.90735e-9 M): 3 | FP signal (compound 3.8147e-9 M): 4 | FP signal (compound 7.6294e-9 M): 5 | FP signal (compound 1.52588e-8 M): 4 | FP signal (compound 3.05176e-8 M): 4 | FP signal (compound 6.10352e-8 M): 5 | FP signal (compound 1.2207e-7 M): 7 | FP signal (compound 2.44141e-7 M): 6 | FP signal (compound 4.88281e-7 M): 4 | FP signal (compound 9.76563e-7 M): 4 | FP signal (compound 1.95313e-6 M): 5 | FP signal (compound 3.90625e-6 M): 9 | FP signal (compound 7.8125e-6 M): 8 | FP signal (compound 1.5625e-5 M): 15 | FP signal (compound 3.125e-5 M): 26 | FP signal (compound 6.25e-5 M): 53 | FP signal (compound 0.000125 M): 107 | FP signal (compound 0.00025 M): 170 | FP signal (compound 0.0005 M): 209 | FP signal (compound 0.001 M): 244

Further lines, results first:

FP signal (compound 324.2 pM): 2 | FP signal (compound 648.5 pM): 1 | FP signal (compound 1.297e-9 M): 2 | FP signal (compound 2.59399e-9 M): 3 | FP signal (compound 5.18799e-9 M): 3 | FP signal (compound 1.0376e-8 M): 3 | FP signal (compound 2.0752e-8 M): 3 | FP signal (compound 4.15039e-8 M): 3 | FP signal (compound 8.30078e-8 M): 2 | FP signal (compound 1.66016e-7 M): 5 | FP signal (compound 3.32031e-7 M): 4 | FP signal (compound 6.64062e-7 M): 3 | FP signal (compound 1.32813e-6 M): 4 | FP signal (compound 2.65625e-6 M): 5 | FP signal (compound 5.3125e-6 M): 6 | FP signal (compound 1.0625e-5 M): 4 | FP signal (compound 2.125e-5 M): 10 | FP signal (compound 4.25e-5 M): 18 | FP signal (compound 8.5e-5 M): 37 | FP signal (compound 0.00034 M): 117 | FP signal (compound 0.00068 M): 184 | FP signal (compound […]): 71
SMILES: N=C(N)NCCCC1NC(=O)C(CCC(N)=O)NC(=O)C(CCCNC(=N)N)NC(=O)C2Cc3ccccc3CN2Cc2cccc(c2)-c2ccccc2CNC1=O (stereo not drawn) [CY007493]

FP signal (compound 453 pM): 1 | FP signal (compound 906 pM): 2 | FP signal (compound 1.81198e-9 M): 2 | FP signal (compound 3.62396e-9 M): 3 | FP signal (compound 7.24792e-9 M): 3 | FP signal (compound 1.44958e-8 M): 1 | FP signal (compound 2.89917e-8 M): 3 | FP signal (compound 5.79834e-8 M): 4 | FP signal (compound 1.15967e-7 M): 3 | FP signal (compound 2.31934e-7 M): 4 | FP signal (compound 4.63867e-7 M): 6 | FP signal (compound 9.27734e-7 M): 3 | FP signal (compound 1.85547e-6 M): 3 | FP signal (compound 3.71094e-6 M): 4 | FP signal (compound 7.42187e-6 M): 6 | FP signal (compound 1.48437e-5 M): 6 | FP signal (compound 2.96875e-5 M): 6 | FP signal (compound 5.9375e-5 M): 26 | FP signal (compound 0.00011875 M): 67 | FP signal (compound 0.0002375 M): 127 | FP signal (compound 0.000475 M): 188 | FP signal (compound 0.00095 M): 241
SMILES: N=C(N)NCCCC1NC(=O)C(CCC(N)=O)NC(=O)C(CCCNC(=N)N)NC(=O)C2CCCN2Cc2ccccc2Sc2ccccc2CNC1=O (stereo not drawn) [CY007502]

From article PMC9226124, “Macrocycle-stabilization of its interaction with 14-3-3 increases plasma membrane localization and activity of CFTR” (Nature Communications, 2022)
